Measurements published in patent publication US20080269121A1, “Methods and Compositions Involving A1c Subunit of L-Type Calcium Channels in Smooth Muscle Cells” (The Board of Regents of the University of Texas System, priority 2005, published 2008).
“Also recorded” adds a separate entry of the source.

Experiments:
[1] = system: α1C1b promoter; test: α1C1b promoter luciferase reporter activity in HCCSMC; assay type: cell-based, human
Method: Transient cell transfections and luciferase activity. FuGENE 6 (Roche, Mannheim, Germany) is used to transfect luciferase-expressing pGL2 constructs in HCCSMC. The cells in passage 4 are seeded into 12-well plates (Costar, Acton, Mass.) and grown to 70% to 80% confluency. Transfections are carried out by incubation of cells in each well with 1.5 μl of FuGENE 6, 0.5 μg of pGL2 construct, and 0.125 μg of pSEAP2 Control Vector (BD Biosciences Clontech, Palo Alto, Calif.) for 24 h as per manufacturer's instructions. The pSEAP2 Control Vector is co-transfected for normalization of data. The transfected cells were treated with stimulus or medium control and harvested after 24 hours. Twenty μl of the supernatant of the cell lysates are taken for the measurement of luciferase activity by a luminometer (Promega, Madison, Wis.). The SEAP activity is measured with a Clontech SEAP detection kit by following the manufacturer's instructions.
Promoter constructs, 5′-deletions, and site-directed mutagenesis. The promoter constructs of hα1c1b are prepared by PCR amplification of human genomic DNA (Roche, Indianapolis, Ind.) and digested partially with Hind III (Promega, Madison, Wis.) using the FailSafe PCR kit (Epicentre, Madison, Wis.). The PCR product is subcloned into pDrive Cloning Vector with the PCR Cloning^plus kit (Qiagen, Valencia, Calif.) and SURE 2 supercompetent cells (Stratagene, La Jolla, Calif.) and subsequently transferred to the luciferase expression plasmid pGL2-Basic Vector (Promega, Madison, Wis.). The deletion constructs are made using the full length promoter construct as a template in PCR reactions. The same methods and kits are used to subclone the sequenced PCR products into the pDrive and pGL2 vector. The site-directed mutagenesis is carried out using QuikChange® II XL Site-Directed Mutagenesis Kit from Stratagene (La Jolla, Calif.), as per manufacturer's instructions.

[2] = system: TNBS (trinitrobenzene sulfonic, acid)-induced colitis; conditions: systemic bolus injections, mouse; cited from earlier work
[3] = system: CRE1 and CRE2; test: Oligonucleotide agarose conjugate pull-down of CREB; assay type: cell-based, human; conditions: FIG. 10
[4] = system: human colonic circular muscle strips; test: Muscle bath: contractile response of human colonic circular muscle strips; assay type: cell-based
Method: (§1) Muscle bath experiments. Pure circular muscle strips (2 mm×10 mm) are prepared from resected human colon segments. The strips are mounted in 5 ml baths filled with carbonated Krebs solution (in mM: 118 NaCl, 4.7 KCl, 2.5 CaCl2, 1 NaH2PO4, 1-2 MgCl2, 11 D-glucose, and 25 NaHCO3) at 37° C. (Siebenlist et al., 1994; Barnes and Karin, 1997). The muscle strips are equilibrated for 1 h at 1 g tension and then stretched until maximal response is obtained to 10^−4 m ACh. The bathing solution is replaced every 15 min. Contractions are measured by force transducers and analyzed by DATAQ (Akron, Ohio) software.
The protocol for transfection of sense and antisense oligonucleotides in freshly obtained muscle strips was similar to that in HCCSMC. The circular muscle layer was isolated from the fall thickness human colon, and sliced into 2 mm×10 mm muscle strips. The strips were incubated in RPMI 1640 without serum. The sense and antisense oligonucleotides (10 μM) were added into the medium for 24 h before incubation with 20 ng/mL TNFα for 24 h.

[5] = system: TNBS-induced inflammation; assay type: in vivo, rat; conditions: intact rat model, treatment through osmotic pumps, expected
Method: as §1
Vertebrate Animals. Sprague-Dawley rats were used. For tissue harvesting, the rats were anesthetized with 5% isoflurame in 100% oxygen for 5 to 7 minutes followed by i.p. injection of 50 mg/kg ketamine.
Osmotic pumps were implanted under anesthesia as discussed above. Lateral surface of left back were shaven and cleaned with betadine. A 2 cm incision was made in the skin and subcutaneous facia and muscle separated. The micro-osmotic pump were implanted intramuscularly and the incision was closed.
Colonic inflammation was induced by intraluminal injection of 30 mg/kg or 130-mg/kg trinitrobenzene sulfonic acid (TNBS) under anesthesia, as described above.

[6] = system: cAMP; test: cAMP levels in HCCSMC; assay type: cell-based, human
Text: (§2) Primary cultures of HCCSMC: Human tissue was obtained from the descending and sigmoid colons with approval of the University of Texas Medical Branch Institutional Review Board from disease free margins of resected segments from patients undergoing surgery for colon cancer. The circular muscle layer was separated from the taenia coli and lamina propria with a tissue slicer. The circular muscle layer was collected in ice-cold HEPES buffer (in mM: 120 NaCl, 2.6 KH2S04, 4 KCl, 2 CaCl2, 0.6 MgCl2, 25 HEPES, 14 glucose and 2.1% essential amino acid mixture, pH 7.4). Two successive digestions with papain and collagenase, as described previously by Shi and Sarna, were used to disperse smooth muscle cells. The cells were cultured in RPMI 1640 (Gibco/Invitrogen, Carlsbad, Calif.) supplemented with 10% fetal bovine serum in the presence of 100 units/mL of penicillin G, 100 μg/mL of streptomycin sulfate and 0.25 μg/mL of amphoteracin B. The culture medium was changed every three days. Cells in passages 3 to 5 were used in all experiments. All cells were cultured in serum-free medium for at least 15 h prior to experiments to eliminate the possible effects of growth factors. […] The cultures of colonic smooth muscle cells retain their contractile phenotype. Each experiment used cells or muscle strips from at least three different subjects.

[7] = system: p38; test: MAP kinase phosphorylation: p38; assay type: cell-based
[8] = system: JNK/SAPK; test: MAP kinase phosphorylation: JNK/SAPK; assay type: cell-based
[9] = system: ERK ½; test: MAP kinase phosphorylation: ERK ½; assay type: cell-based
[10] = system: α1C subunit of L-type Ca^2+ channels; test: α1C protein expression (Western immunoblotting); assay type: cell-based, human
Text: as §2
Western immunoblotting. Each lane is loaded with 10 μg protein and size-separated on a 10% SDS polyacrylamide gel. After blotting, the nitrocellulose membranes are blocked with 10% non-fat dried milk at 4° C. overnight. The blots are incubated with appropriate dilution of the antibody at 4° C. overnight and appropriate dilution of designated secondary antibody at room temperature for 1 h. β-actin is used as internal control.

Substance: vasoactive intestinal polypeptide [VIP]
- α1C1b promoter reporter (luciferase) activity ([1]; substance by itself): enhanced in a concentration-dependent manner; also recorded: concentration-dependently increased; also recorded: enhanced promoter activity in normal cells
- effect on suppression of α1C1b promoter activity by TNFα ([1]; with TNFα): significantly blocked this reduction; also recorded: partially blocked the suppression
- MPO (myeloperoxidase) activity [2]: did not completely suppress
- TNBS-induced diarrhea [2]: abrogated TNBS-induced diarrhea
- macroscopic and microscopic inflammation [2]: reduced macroscopic and microscopic inflammation
- CREB binding to CRE1 and CRE2 [3]: more CREB binds at both CRE1 and CRE2
- effect on TNFα suppression of contractile response to ACh ([4]; muscle strips, treatment before/with TNFα): significantly reduces the suppression; also recorded: partially reversed the suppression
- contractile response of circular muscle strips to ACh ([4]; strips incubated 24 h, organ bath): enhanced the contractile response to ACh and KCl; also recorded: increased their contractile response to ACh; also recorded: enhanced it
- effect on suppression of contractility due to TNBS-induced inflammation [5]: partially inhibit the suppression of contractility
- duration of elevated cAMP levels [6]: at least 24 h
- intercellular cAMP levels ([6]; 24 h treatment): elevated throughout the 24 h period
- phosphorylation of p38 [7]: time-dependently dephosphorylated
- phosphorylation of JNK/SAPK [8]: time-dependently dephosphorylated
- phosphorylation of ERK ½ [9]: time-dependently dephosphorylated
- increase of α1C protein ([10]; adult human colonic circular smooth muscle cells): about 100%
- effect on TNFα suppression of α1C protein ([10]; muscle strip tissue, FIG. 14 top): minimized
